The values that follow come from PubChem BioAssay (NCI).

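Briefly, cells in 96-well plates were exposed to five compound concentrations for 48 h, and endpoints were estimated by linear interpolation. GI50: concentration for 50% inhibition of growth. Definition used: TGI = concentration required for complete inhibition of growth.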

Among the test systems are 786-0 renal; DLD-1 colon; HOP-62 NSCLC; M14 melanoma; M19-MEL melanoma; NCI-H460 lung; SF-295 CNS; SN12C renal; SNB-78 CNS.
Assay in all cases: growth of human tumour cells (NCI), 48 h

With `O=[N+]([O-])c1ccc(C2CC(c3ccccc3Cl)=Nc3ccccc3S2)cc1` (stereo not drawn), the TGI turned out to be 12.3 µM in the assay with 786-0 renal; 7.24 µM in the assay with DLD-1 colon; 68.2 µM with HOP-62 NSCLC; 29.4 µM with M14 melanoma; 29.1 µM with M19-MEL melanoma; 45.1 µM with NCI-H460 lung. The TGI in the assay with SF-295 CNS is 38.5 µM; with SN12C renal it was 17.4 µM; in the assay on SNB-78 CNS it was above 94.2 µM.

With `COC(=O)C1=Cc2cc(OC)c(OC)c(OC)c2[C@H](c2cc(OC)c(OC)c(OC)c2)C1C(=O)OC` (stereo partly drawn), the TGI with 786-0 renal, in the assay with DLD-1 colon, in the assay on HOP-62 NSCLC, with M14 melanoma, with M19-MEL melanoma and in the assay with NCI-H460 lung was above 100 µM each time. Besides, the TGI in the assay with SF-295 CNS, in the assay with SN12C renal and in the assay on SNB-78 CNS was above 100 µM throughout.

Consider `COC(=O)CCC(NC(=S)N/N=C/c1ccccn1)C(=O)OC` (stereo not drawn), for which the TGI with 786-0 renal, in the assay with DLD-1 colon, in the assay on HOP-62 NSCLC, with M14 melanoma, in the assay on M19-MEL melanoma and in the assay with NCI-H460 lung was above 100 µM each time. Besides, the TGI with SF-295 CNS, in the assay on SN12C renal and in the assay on SNB-78 CNS was above 100 µM each time.

Consider `O=C1/C(=N\O)c2ccccc2S1(=O)=O`, for which the TGI in the assay on 786-0 renal, in the assay with DLD-1 colon, in the assay on HOP-62 NSCLC, in the assay with M14 melanoma, in the assay on M19-MEL melanoma and in the assay with NCI-H460 lung was above 100 µM each time. Besides, the TGI in the assay on SF-295 CNS, in the assay on SN12C renal and in the assay with SNB-78 CNS was above 100 µM throughout.

In the case of `CC(=O)Nc1ccccc1-c1nc2ccccc2nc1C`, the TGI with 786-0 renal, in the assay with DLD-1 colon, with HOP-62 NSCLC, with M14 melanoma, in the assay with M19-MEL melanoma and in the assay on NCI-H460 lung was above 100 µM each time. Further, the TGI in the assay on SF-295 CNS, in the assay on SN12C renal and with SNB-78 CNS was above 100 µM in each case.

In the case of `O=S(=O)([O-])c1ccc(N=Cc2ccccc2[O-])cc1.O=S(=O)([O-])c1ccc(N=Cc2ccccc2[O-])cc1.[O]=[U+2]=[O]`, the GI50 with 786-0 renal was 42.7 µM; in the assay on DLD-1 colon, 67.9 µM; in the assay on HOP-62 NSCLC it was 81.7 µM; in the assay on M14 melanoma, above 100 µM; in the assay on M19-MEL melanoma, above 100 µM; in the assay with NCI-H460 lung it was above 100 µM. Besides, the values for the GI50 in the assay with SF-295 CNS, with SN12C renal and in the assay with SNB-78 CNS were above 100 µM, above 100 µM and 80.4 µM, respectively. Besides, the TGI in the assay with 786-0 renal, in the assay with DLD-1 colon, with HOP-62 NSCLC, in the assay on M14 melanoma, in the assay with M19-MEL melanoma and in the assay on NCI-H460 lung was above 100 µM each time. Besides, the TGI in the assay on SF-295 CNS, in the assay on SN12C renal and in the assay on SNB-78 CNS was above 100 µM in each case.
